Source: US12233161B1, “Lipids and lipid nanoparticle formulations” (LONGUIDE BIOPHARMA CORPORATION, priority 2024, dated 2025)
Blank lines part the entries; values can stand above or below the compound they belong to.

Key:
mice = assay: In vivo delivery of FLuc-mRNA lipid nanoparticles in mice, in vivo imaging (IVIS)
Method in brief: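 Mice (n=3) received about 75 μL FLuc-mRNA LNP per mouse intramuscularly (rectus femoris), intravenously (tail vein), intraperitoneally or subcutaneously (back). After injection, D-luciferin (200 μL, 15 mg/mL) was given i.p. 10-15 min before IVIS imaging.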

[1] = Particle size and PDI of nucleic acid lipid nanoparticle preparations by dynamic light scattering; type: physicochemical
Method in brief: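 Size read by DLS after diluting the LNP preparation (approx. 0.04 mg/mL mRNA) in ultrapure water with gentle pipette mixing. The same sample, recovered and diluted further with water, was then used for zeta potential measurement.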

[2] = Potential characterization of nucleic acid lipid nanoparticle preparations; type: physicochemical
Method: 20 μL of the nucleic acid lipid nanoparticle solution (containing about 0.04 mg/mL mRNA) was taken and added with 780 μL of ultrapure water, used a pipette tip to gently blow and mix, and the potential of the nanopreparation was detected by Malvern particle sizer (model ZEN3700).
27.5 μL nucleic acid lipid nanoparticle solution (containing about 0.04 mg/mL mRNA) was taken and added with 200 μL ultrapure water. A pipette tip was used to gently blow the sample and mix well. The particle size of the nanopreparation was detected by Malvern Dynamic Light Scattering Instrument (Malvern Instruments Ltd., ZEN3700, UK). After the detection, the sample was recovered to an EP tube, and 600 μL of ultrapure water was added, gently blown with a pipette tip, and the potential of the nanopreparation was measured by a Malvern particle size meter.

[3] = IM, DMG-PEG2000:DSPC:Chol:compound 1.40:11.15:38.95:48.50, N/P 30, Fluc-mRNA
[4] = DMG-PEG2000:DSPC:Chol:compound 1.40:11.15:38.95:48.50, N/P 30
[5] = DMG-PEG2000:DSPC:Chol:compound 1.40:11.15:38.95:48.50, N/P 40
[6] = IM, DMG-PEG2000:DSPC:Chol:compound 1.40:11.15:38.95:48.50, N/P 20, Fluc-mRNA
[7] = DMG-PEG2000:DSPC:Chol:compound 1.40:11.15:38.95:48.50, N/P 20
[8] = mRNA LNP, 1.00:4.00:30.00:65.00, N/P 30, IV, liver
[9] = mRNA LNP, 1.00:4.00:30.00:65.00, N/P 30, IV, lung
[10] = mRNA LNP, 1.00:4.00:30.00:65.00, N/P 30, IV, spleen
[11] = mRNA LNP, 1.40:11.15:38.95:48.50, N/P 30, IV, liver
[12] = mRNA LNP, 1.40:11.15:38.95:48.50, N/P 30, IV, lung
[13] = mRNA LNP, 1.40:11.15:38.95:48.50, N/P 30, IV, spleen
[14] = mRNA LNP, 1.00:4.00:30.00:65.00, N/P 30
[15] = mRNA LNP, 1.40:11.15:38.95:48.50, N/P 30
[16] = IV, body, DMG-PEG2000:DSPC:Chol:compound 1.40:11.15:38.95:48.50, N/P 30, Fluc-mRNA
[17] = IV, liver, DMG-PEG2000:DSPC:Chol:compound 1.40:11.15:38.95:48.50, N/P 30
[18] = IV, liver, DMG-PEG2000:DSPC:Chol:compound 1.40:11.15:38.95:48.50, N/P 30, Fluc-mRNA
[19] = IV, lung, DMG-PEG2000:DSPC:Chol:compound 1.40:11.15:38.95:48.50, N/P 30
[20] = IV, lung, DMG-PEG2000:DSPC:Chol:compound 1.40:11.15:38.95:48.50, N/P 30, Fluc-mRNA
[21] = IV, spleen, DMG-PEG2000:DSPC:Chol:compound 1.40:11.15:38.95:48.50, N/P 30
[22] = IV, spleen, DMG-PEG2000:DSPC:Chol:compound 1.40:11.15:38.95:48.50, N/P 30, Fluc-mRNA

Compound: CCCCCCOC(C)OCCCCCCOC(=O)C(O)CN(CCCN(C)CCCN(CC(O)C(=O)OCCCCCCOC(C)OCCCCCC)CC(O)C(=O)OCCCCCCOC(C)OCCCCCC)CC(O)C(=O)OCCCCCCOC(C)OCCCCCC (stereo not drawn) [Compound L0316]
IVIS (mice; [3]): 4.46E+06
IVIS (mice; IV, organ not given, DMG-PEG2000:DSPC:Chol:compound 1.40:11.15:38.95:48.50, N/P 30, Fluc-mRNA): 3.53E+08
PDI [1, 4]: 0.12
Particle size (nm) [1, 4]: 125.9 nm
Zeta potential (mV) [2, 4]: 18.97 mV

Compound: CCCCCCCCCCCCNC(=O)C(O)CN(CCCN(CCCN(CC(O)C(=O)NCCCCCCCCCCCC)CC(O)C(=O)NCCCCCCCCCCCC)CC(O)C[N+](C)(C)C)CC(O)C(=O)NCCCCCCCCCCCC (stereo not drawn) [Compound L0302]
IVIS (mice; IM, DMG-PEG2000:DSPC:Chol:compound 1.40:11.15:38.95:48.50, N/P 40, Fluc-mRNA): 6.87E+05
IVIS (mice; IV, body, DMG-PEG2000:DSPC:Chol:compound 1.40:11.15:38.95:48.50, N/P 40, Fluc-mRNA): 4.41E+06
% of organ targeting (mice; IV, liver, DMG-PEG2000:DSPC:Chol:compound 1.40:11.15:38.95:48.50, N/P 40): 1.31%
IVIS (mice; IV, liver, DMG-PEG2000:DSPC:Chol:compound 1.40:11.15:38.95:48.50, N/P 40, Fluc-mRNA): 2.05E+05
% of organ targeting (mice; IV, lung, DMG-PEG2000:DSPC:Chol:compound 1.40:11.15:38.95:48.50, N/P 40): 97.12%
IVIS (mice; IV, lung, DMG-PEG2000:DSPC:Chol:compound 1.40:11.15:38.95:48.50, N/P 40, Fluc-mRNA): 1.52E+07
% of organ targeting (mice; IV, spleen, DMG-PEG2000:DSPC:Chol:compound 1.40:11.15:38.95:48.50, N/P 40): 1.57%
IVIS (mice; IV, spleen, DMG-PEG2000:DSPC:Chol:compound 1.40:11.15:38.95:48.50, N/P 40, Fluc-mRNA): 2.47E+05
PDI [1, 5]: 0.21
Particle size (nm) [1, 5]: 132.07 nm
Zeta potential (mV) [2, 5]: 16.93 mV

Compound: CCCCCCCCCCOC(=O)C(O)CN(CCCCCCCN(CC(O)C(=O)OCCCCCCCCCC)CC(O)C(=O)OCCCCCCCCCC)CC(O)C(=O)OCCCCCCCCCC (stereo not drawn) [Compound L0321]
IVIS (mice; [6]): 1.37E+05
IVIS (mice; IV, organ not given, DMG-PEG2000:DSPC:Chol:compound 1.40:11.15:38.95:48.50, N/P 20, Fluc-mRNA): 2.11E+05
PDI [1, 7]: 0.48
Particle size (nm) [1, 7]: 207.73 nm
Zeta potential (mV) [2, 7]: −0.61 mV

More lines, main results first:

PDI [1, 14]: 0.17
Particle size (nm) [1, 14]: 97.75 nm
PDI [1, 15]: 0.18
Particle size (nm) [1, 15]: 91.53 nm
Zeta potential (mV) [2, 14]: 13.40 mV
Zeta potential (mV) [2, 15]: 16.43 mV
Compound: CCCCCCCCCCCCNC(=O)CCN(CCC(=O)NCCCCCCCCCCCC)CCN(C)CCN(CCC(=O)NCCCCCCCCCCCC)CCC(=O)NCCCCCCCCCCCC [L0264-Control, reference compound]
% of organ targeting (mice; [8]): 0.58%
IVIS (mice; [8]): 1.67E+06
% of organ targeting (mice; [9]): 86.18%
IVIS (mice; [9]): 2.49E+08
% of organ targeting (mice; [10]): 13.25%
IVIS (mice; [10]): 3.82E+07
IVIS (mice; mRNA LNP, 1.40:11.15:38.95:48.50, N/P 30, IM, organ not given): 1.37E+05
% of organ targeting (mice; [11]): 1.25%
IVIS (mice; [11]): 8.01E+05
% of organ targeting (mice; [12]): 74.91%
IVIS (mice; [12]): 4.81E+07
% of organ targeting (mice; [13]): 23.85%
IVIS (mice; [13]): 1.53E+07
IVIS (mice; mRNA LNP, DMG-PEG2000:DSPC:Chol:lipid 1.00:4.00:30.00:65.00, N/P 30, IV, body): 1.10E+08
IVIS (mice; mRNA LNP, DMG-PEG2000:DSPC:Chol:lipid 1.40:11.15:38.95:48.50, N/P 30, IV, body): 2.50E+07

PDI [1, 4]: 0.12
Particle size (nm) [1, 4]: 125.77 nm
Zeta potential (mV) [2, 4]: 4.11 mV
Compound: CCCCCCOC(C)OCCCCCCOC(=O)C(O)CN(CCCN(CC(O)C(=O)OCCCCCCOC(C)OCCCCCC)CC(O)C(=O)OCCCCCCOC(C)OCCCCCC)CCCN(CC(O)C(=O)OCCCCCCOC(C)OCCCCCC)CC(O)C(=O)OCCCCCCOC(C)OCCCCCC (stereo not drawn) [Compound L0340]
IVIS (mice; [3]): 4.87E+07
IVIS (mice; [16]): 9.07E+07
% of organ targeting (mice; [17]): 65.77%
IVIS (mice; [18]): 2.85E+07
% of organ targeting (mice; [19]): 1.45%
IVIS (mice; [20]): 6.29E+05
% of organ targeting (mice; [21]): 32.78%
IVIS (mice; [22]): 1.42E+07

PDI [1, 4]: 0.19
Particle size (nm) [1, 4]: 110.13 nm
Zeta potential (mV) [2, 4]: 14.07 mV
Compound: CCCC/C=C\CCOCOCCCCOC(=O)C(O)CN(CCN(C)CCN(CC(O)C(=O)OCCCCOCOCC/C=C\CCCC)CC(O)C(=O)OCCCCOCOCC/C=C\CCCC)CC(O)C(=O)OCCCCOCOCC/C=C\CCCC (stereo not drawn) [Compound L0335]
IVIS (mice; [3]): 1.99E+06
IVIS (mice; [16]): 9.08E+07
% of organ targeting (mice; [17]): 37.57%
IVIS (mice; [18]): 1.92E+07
% of organ targeting (mice; [19]): 2.72%
IVIS (mice; [20]): 1.39E+06
% of organ targeting (mice; [21]): 59.71%
IVIS (mice; [22]): 3.05E+07

PDI [1, 7]: 0.14
Particle size (nm) [1, 7]: 94.78 nm
Zeta potential (mV) [2, 7]: 8.37 mV
Compound: CCCCCCCCCCNC(=O)C(O)CN(CCCCCCCN(CC(O)C(=O)NCCCCCCCCCC)CC(O)C(=O)NCCCCCCCCCC)CC(O)C(=O)NCCCCCCCCCC (stereo not drawn) [Compound L0323]
IVIS (mice; [6]): 7.24E+05
IVIS (mice; IV, body, DMG-PEG2000:DSPC:Chol:compound 1.40:11.15:38.95:48.50, N/P 20, Fluc-mRNA): 2.95E+06
% of organ targeting (mice; IV, liver, DMG-PEG2000:DSPC:Chol:compound 1.40:11.15:38.95:48.50, N/P 20): 44.01%
IVIS (mice; IV, liver, DMG-PEG2000:DSPC:Chol:compound 1.40:11.15:38.95:48.50, N/P 20, Fluc-mRNA): 8.40E+05
% of organ targeting (mice; IV, lung, DMG-PEG2000:DSPC:Chol:compound 1.40:11.15:38.95:48.50, N/P 20): 6.06%
IVIS (mice; IV, lung, DMG-PEG2000:DSPC:Chol:compound 1.40:11.15:38.95:48.50, N/P 20, Fluc-mRNA): 1.16E+05
% of organ targeting (mice; IV, spleen, DMG-PEG2000:DSPC:Chol:compound 1.40:11.15:38.95:48.50, N/P 20): 49.93%
IVIS (mice; IV, spleen, DMG-PEG2000:DSPC:Chol:compound 1.40:11.15:38.95:48.50, N/P 20, Fluc-mRNA): 9.53E+05
